Structures are written as SMILES. Read-outs that look alike come from different tables or passages of the source.

The target of test [1] is T1, muscle-type nAChR (α1β1γδ- or α1*-nAChR) (Homo sapiens, UniProt P02708+P07510+P11230+Q07001).
T1 construct: Cells of the TE671/RD line naturally expresses muscle-type nAChR; endogenous in cells; host or cells: TE671/RD cells
In words: 86Rb+ efflux nAChR functional assay, TE671/RD cells. To be noted: nAChR inhibition IC50 α1*β1, EC80-EC90 carbamylcholine, parentheses = S.E.M. as multiplication/division factor. Format: cell-based. From the text:
(§1) Cell Lines and Culture: Human embryonic kidney (HEK-293) cells stably expressing human DAT, NET or SERT were maintained as previously described in Eshleman, A. J.; Carmolli, M.; Cumbay, M.; Martens, C. R.; Neve, K. A.; Janowsky, A., J. Pharmacol. Exp. Ther. 1999, 289, (2), 877-885. Use was made of several human cell lines that naturally or heterologously express specific, functional, human nAChR subtypes. Cells of the TE671/RD line naturally expresses muscle-type nAChR (a1β1γδ- or α1*-nAChR), and SH-SY5Y neuroblastoma cells naturally expresses autonomic α3β4*-nAChRs (containing α3, β4, probably α5, and sometimes β2 subunits). Different clones of SH-EP1 epithelial cell lines have been engineered to heterologously express either α4β2-nAChR, which are thought to be the most abundant, high affinity nicotine-binding nAChR in mammalian brain, or α4β4-nAChR, another possible brain nAChR subtype (SH-EP1-hα4β2 or α4β4 cells, respectively). These cells were maintained as low passage number (1-26 from our frozen stocks) cultures to ensure stable expression of native or heterologously-expressed nAChR as previously described (see Lukas, R. J.; Fryer, J. D.; Eaton, J. B.; L., G. C., Some methods for studies of nicotinic acetylcholine receptor pharmacology, in Nicotinic receptors and the Nervous System, Levine, E. D., Ed. CRC Press: Boca Raton, 2002; pp 3-27, incorporated herein by reference in its entirety). Cells were passaged once weekly by splitting just-confluent cultures 1/300 (TE671/RD), 1/5 (SH-SY5Y), or 1/20 (transfected SH-EP1) in serum-supplemented medium to maintain log-phase growth.
(§2) After cells had adhered (generally overnight, but no sooner than 4 h later), the medium was removed and replaced with 250 μL per well of complete medium supplemented with ˜350,000 cpm of ^86Rb^+ (PerkinElmer Life and Analytical Sciences, Boston, Mass.) and counted at 40% efficiency using Cerenkov counting (TriCarb 1900 liquid scintillation analyzer[…]; PerkinElmer Life Sciences).
(§3) After at least 4 h and typically overnight, ^86Rb^+ efflux was measured using the “flip-plate” technique. See Lukas, R. J.; Fryer, J. D.; Eaton, J. B.; L., G. C., Some methods for studies of nicotinic acetylcholine receptor pharmacology, in Nicotinic receptors and the Nervous System, Levine, E. D., Ed. CRC Press: Boca Raton, 2002; pp 3-27, incorporated herein by reference in its entirety). Briefly, after aspiration of the bulk of ^86Rb^+ loading medium from each well of the “cell plate,” each well containing cells was rinsed 3× with 2 mL of fresh ^86Rb^+ efflux buffer (130 mM NaCl, 5.4 mM KCl, 2 mM CaCl2, 5 mM glucose, 50 mM HEPES, pH 7.4) to remove extracellular ^86Rb^+. Following removal of residual rinse buffer by aspiration, the flip-plate technique was used again to simultaneously introduce 1.5 mL of fresh efflux buffer containing drugs of choice at indicated final concentrations from a 24-well “efflux/drug plate” into the wells of the cell plate. After a 5 min incubation, the solution was “flipped” back into the efflux/drug plate, and any remaining buffer in the cell plate was removed by aspiration. Cells remaining in the cell plate were lysed and suspended by addition of 1.5 mL of 0.1 M NaOH, 0.1% sodium dodecyl sulfate to each well.
(§4) Similarly, the sum of ^86Rb^+ in cell plates and efflux/drug plates also determined the efficiency of ^86Rb^+ loading (the percentage of applied ^86Rb^+ actually loaded into cells).
(§5) Specific efflux was then taken as the difference in control samples between total and non-specific ^86Rb^+ efflux. Any intrinsic agonist activity of test drugs was ascertained using samples containing test drug only at different concentrations and was normalized, after subtraction of non-specific efflux, to specific efflux in test drug-free, control samples.

Test [2] has as its target T2, 5HT transporters [(h)SERT] (Homo sapiens, UniProt P31645).
T2 construct: expressed in transfected cells; host or cells: HEK-293
In words: Inhibition of [3H]serotonin uptake into HEK293 cells stably expressing hSERT. Format: cell-based.
Source text: as §1
(§6) See, for example, Damaj, M. I.; Carroll, F. I.; Eaton, J. B.; Navarro, H. A.; Blough, B. E.; Mirza, S.; Lukas, R. J.; Martin, B. R., Mol. Pharmacol. 2004, 66, (3), 675-682 and Eshleman, A. J.; Carmolli, M.; Cumbay, M.; Martens, C. R.; Neve, K. A.; Janowsky, A., J. Pharmacol. Exp. Ther. 1999, 289, (2), 877-885, both incorporated by reference herein in their entireties.

Another test deals with T3, NE transporters [h(NET)] (Homo sapiens, UniProt P23975).
T3 construct: expressed in transfected cells; host or cells: HEK-293
Put plainly: Inhibition of [3H]norepinephrine uptake into HEK293 cells stably expressing hNET. The conditions noted are these: HEK293-hNET; mean ± standard error of three independent experiments; read-out: monoamine uptake inhibition IC50 [3H]NE. Format: cell-based.
Source text: as §1, §6

A further test has as its target T4, α4β2-nAChR (Homo sapiens, UniProt P17787+P43681).
T4 construct: expressed in transfected cells; host or cells: SH-EP1 epithelial cells (SH-EP1-hα4β2)
In words: 86Rb+ efflux nAChR functional assay, SH-EP1-hα4β2 cells. Format: cell-based. The conditions noted are these: EC80-EC90 carbamylcholine; SH-EP1-hα4β2; parentheses = S.E.M. as multiplication/division factor; read-out: nAChR inhibition IC50 α4β2.
Source text: as §1, §2, §3, §4, §5

Test [3] concerns the target T5, human DA transporters [(h)DAT] (Homo sapiens, UniProt Q01959).
T5 construct: expressed in transfected cells; host or cells: HEK-293
In words: Inhibition of [3H]dopamine uptake into HEK293 cells stably expressing hDAT. Format: cell-based.
Source text: as §1, §6

In a further test the target is T6, α4β4-nAChR (Homo sapiens, UniProt P30926+P43681).
T6 construct: expressed in transfected cells; host or cells: SH-EP1 epithelial cells (SH-EP1-hα4β4)
Put plainly: 86Rb+ efflux nAChR functional assay, SH-EP1-hα4β4 cells. Format: cell-based. To be noted: EC80-EC90 carbamylcholine, parentheses = S.E.M. as multiplication/division factor, read-out: nAChR inhibition IC50 α4β4.
Source text: as §1, §2, §3, §4, §5

The subject of test [4] is Male Institute of Cancer Research (ICR) mice. Put plainly: Tail-flick test, blockade of nicotine-induced antinociception. Format: in vivo. To be noted: mice, pretreatment 15 min before nicotine 2.5 mg/kg s.c., tested 5 min after nicotine; for ED50: Mus musculus, 5 min, read-out: AD50 Tail-flick. From the text: (§7) Animals: Male Institute of Cancer Research (ICR) mice (weighing 20-25 g) obtained from Harlan (Indianapolis, Ind.) were used throughout the study. Animals were housed in an Association for Assessment and Accreditation of Laboratory Animal Care-approved facility, were placed in groups of six, and had free access to food and water. Studies were approved by the Institutional Animal Care and Use Committee of Virginia Commonwealth University.
Tail-Flick Test: Antinociception for pain mediated at the spinal level was assessed by the tail-flick method of D'Amour, F. E.; Smith, D. L., J. Pharmacol. Exp. Ther. 1941, 72, 74-79, incorporated herein by reference in its entirety. In brief, mice were lightly restrained while a radiant heat source was shone onto the upper portion of the tail. To minimize tissue damage, a maximum latency of 10 s was imposed. Latency to remove the tail from the heat source was recorded for each animal. […] Antinociceptive response was calculated as the percentage of maximum possible effect (% MPE), where % MPE=[(test control)/(10 control)]×100.
On the technique in general: Thermal pain tests record how soon the animal reacts.

Test [5] has the same test system. In words: Hot-plate test, blockade of nicotine-induced antinociception. Format: in vivo. The conditions noted are these: pretreatment 15 min before nicotine 2.5 mg/kg s.c., tested 5 min after nicotine; for ED50: Mus musculus, read-out: AD50 Hot-plate.
Source text: as §7
Hot-Plate Test: Mice were placed into a 10-cm wide glass cylinder on a hot plate (Thermojust Apparatus) maintained at 55° C. for assessment of pain responses mediated at supraspinal levels. To minimize tissue damage, a maximum exposure to the hot plate 40 s was imposed. Measures of control latencies (time until the animal jumped or licked its paws; typically 8-12 s) were done twice for stimuli applied at least 10 min apart for each mouse. Antinociceptive responses after test drug administrations were determined and calculated as the % MPE, where % MPE=[(test latency in s−control latency in s)/(40 s−control latency in s)×100]. Groups of 8 to 12 animals were used for each drug condition. […] The animals were then tested 5 min after administration of a subcutaneous dose of 2.5 mg/kg nicotine.

Test [6] has the same test system. Put plainly: Body temperature, antagonism of nicotine-induced hypothermia. Format: in vivo. To be noted: pretreatment 15 min before nicotine 2.5 mg/kg s.c., tested 30 min after nicotine. The protocol:
as §7
Body Temperature: Rectal temperature was measured by a thermistor probe (inserted 24 mm) and digital thermometer (YSI Inc., Yellow Springs, Ohio). Readings were taken just before and 30 min after subcutaneous injection of either saline or 2.5 mg/kg nicotine. The difference in rectal temperature before and after treatment was calculated for each mouse. The ambient temperature of the laboratory varied from 21 to 24° C. from day to day. […] The animals were then tested 30 min after administration of a subcutaneous dose of 2.5 mg/kg nicotine.

Test [7] shares this test system. Put plainly: Locomotor activity, antagonism of nicotine effect. Format: in vivo. The conditions noted are these: for AD50 Locomotion: pretreatment 15 min before nicotine […] s.c.
Source text: as §7
Locomotor Activity: Mice were placed into individual Omnitech photocell activity cages (28×16.5 cm; Omnitech Electronics, Columbus, Ohio) 5 min after subcutaneous administration of either 0.9% saline or nicotine (1.5 mg/kg). Interruptions of the photocell beams (two banks of eight cells each) were then recorded for the next 10 min. Data were expressed as the number of photocell interruptions.

T2 sequence (P31645 whole entry): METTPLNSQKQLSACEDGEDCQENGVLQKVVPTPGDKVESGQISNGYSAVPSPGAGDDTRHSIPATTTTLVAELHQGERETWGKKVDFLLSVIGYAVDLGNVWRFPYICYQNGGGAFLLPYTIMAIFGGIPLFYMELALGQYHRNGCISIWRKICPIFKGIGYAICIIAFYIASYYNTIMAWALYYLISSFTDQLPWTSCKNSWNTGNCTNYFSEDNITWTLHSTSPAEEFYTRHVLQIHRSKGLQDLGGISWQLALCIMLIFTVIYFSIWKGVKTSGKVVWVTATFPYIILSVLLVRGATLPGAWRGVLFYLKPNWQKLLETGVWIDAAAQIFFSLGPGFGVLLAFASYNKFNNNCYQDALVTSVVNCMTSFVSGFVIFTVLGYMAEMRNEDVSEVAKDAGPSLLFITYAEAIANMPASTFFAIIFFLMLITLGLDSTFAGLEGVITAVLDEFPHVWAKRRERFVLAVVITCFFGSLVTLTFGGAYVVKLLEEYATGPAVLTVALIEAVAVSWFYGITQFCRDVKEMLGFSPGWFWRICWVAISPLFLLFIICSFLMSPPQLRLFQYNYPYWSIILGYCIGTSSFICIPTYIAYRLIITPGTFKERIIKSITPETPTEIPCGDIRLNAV
T5 sequence (Q01959 whole entry): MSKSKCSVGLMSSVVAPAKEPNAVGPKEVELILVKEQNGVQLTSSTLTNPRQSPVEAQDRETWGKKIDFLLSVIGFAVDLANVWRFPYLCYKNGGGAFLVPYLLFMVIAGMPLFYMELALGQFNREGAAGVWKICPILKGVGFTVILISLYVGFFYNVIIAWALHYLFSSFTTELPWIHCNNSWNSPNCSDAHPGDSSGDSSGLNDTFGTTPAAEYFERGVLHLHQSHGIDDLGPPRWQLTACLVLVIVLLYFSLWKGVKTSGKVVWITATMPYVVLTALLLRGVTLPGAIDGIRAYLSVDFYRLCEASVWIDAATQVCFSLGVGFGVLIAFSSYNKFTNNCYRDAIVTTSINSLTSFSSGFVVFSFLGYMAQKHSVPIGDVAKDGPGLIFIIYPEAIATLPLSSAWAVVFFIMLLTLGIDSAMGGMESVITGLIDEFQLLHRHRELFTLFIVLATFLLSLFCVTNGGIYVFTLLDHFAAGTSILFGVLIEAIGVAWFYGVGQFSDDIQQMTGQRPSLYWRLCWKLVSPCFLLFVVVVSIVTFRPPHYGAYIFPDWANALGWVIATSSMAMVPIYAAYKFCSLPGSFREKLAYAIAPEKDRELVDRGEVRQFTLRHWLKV
T3 sequence (P23975 whole entry): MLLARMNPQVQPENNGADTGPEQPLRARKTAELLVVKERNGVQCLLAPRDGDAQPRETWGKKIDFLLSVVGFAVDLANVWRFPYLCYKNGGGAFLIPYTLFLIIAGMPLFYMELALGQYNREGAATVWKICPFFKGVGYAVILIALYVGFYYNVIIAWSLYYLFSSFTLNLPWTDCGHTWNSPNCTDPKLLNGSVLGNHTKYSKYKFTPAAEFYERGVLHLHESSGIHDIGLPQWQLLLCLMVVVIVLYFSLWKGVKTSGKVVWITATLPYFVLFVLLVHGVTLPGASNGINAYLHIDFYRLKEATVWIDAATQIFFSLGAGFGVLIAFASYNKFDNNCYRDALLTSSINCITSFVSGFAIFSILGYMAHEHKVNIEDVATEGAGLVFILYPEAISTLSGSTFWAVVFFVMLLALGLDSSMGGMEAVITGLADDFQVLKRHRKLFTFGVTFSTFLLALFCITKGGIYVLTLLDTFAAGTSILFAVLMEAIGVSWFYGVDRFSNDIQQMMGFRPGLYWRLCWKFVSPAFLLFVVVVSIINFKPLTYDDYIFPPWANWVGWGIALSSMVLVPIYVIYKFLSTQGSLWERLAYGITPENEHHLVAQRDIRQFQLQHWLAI
T1 sequence (P02708 21-457): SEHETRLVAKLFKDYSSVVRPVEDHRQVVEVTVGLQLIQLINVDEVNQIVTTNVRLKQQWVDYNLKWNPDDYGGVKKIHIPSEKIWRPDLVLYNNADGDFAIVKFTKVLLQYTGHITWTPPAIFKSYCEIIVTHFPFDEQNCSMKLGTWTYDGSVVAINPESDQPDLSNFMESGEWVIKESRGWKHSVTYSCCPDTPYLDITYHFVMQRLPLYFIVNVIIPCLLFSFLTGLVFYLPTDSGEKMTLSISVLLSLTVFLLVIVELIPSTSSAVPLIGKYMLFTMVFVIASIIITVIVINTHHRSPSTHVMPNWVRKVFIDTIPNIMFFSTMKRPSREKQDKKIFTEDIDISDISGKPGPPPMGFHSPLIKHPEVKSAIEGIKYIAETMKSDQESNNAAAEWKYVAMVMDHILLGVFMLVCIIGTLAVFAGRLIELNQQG
T1 sequence (P11230 24-501): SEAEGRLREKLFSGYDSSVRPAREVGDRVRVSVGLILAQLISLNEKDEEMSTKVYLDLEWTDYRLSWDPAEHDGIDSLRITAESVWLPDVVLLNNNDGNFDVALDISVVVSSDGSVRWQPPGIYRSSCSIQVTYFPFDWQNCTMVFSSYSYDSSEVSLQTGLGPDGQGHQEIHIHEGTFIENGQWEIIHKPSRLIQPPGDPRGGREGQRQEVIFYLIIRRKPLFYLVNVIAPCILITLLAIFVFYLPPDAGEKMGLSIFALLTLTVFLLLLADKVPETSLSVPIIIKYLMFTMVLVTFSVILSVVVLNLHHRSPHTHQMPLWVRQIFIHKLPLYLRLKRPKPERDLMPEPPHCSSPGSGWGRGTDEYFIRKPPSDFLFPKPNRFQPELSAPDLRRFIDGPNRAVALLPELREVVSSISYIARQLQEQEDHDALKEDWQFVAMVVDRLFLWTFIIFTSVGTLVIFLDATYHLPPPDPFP
T1 sequence (P07510 23-517): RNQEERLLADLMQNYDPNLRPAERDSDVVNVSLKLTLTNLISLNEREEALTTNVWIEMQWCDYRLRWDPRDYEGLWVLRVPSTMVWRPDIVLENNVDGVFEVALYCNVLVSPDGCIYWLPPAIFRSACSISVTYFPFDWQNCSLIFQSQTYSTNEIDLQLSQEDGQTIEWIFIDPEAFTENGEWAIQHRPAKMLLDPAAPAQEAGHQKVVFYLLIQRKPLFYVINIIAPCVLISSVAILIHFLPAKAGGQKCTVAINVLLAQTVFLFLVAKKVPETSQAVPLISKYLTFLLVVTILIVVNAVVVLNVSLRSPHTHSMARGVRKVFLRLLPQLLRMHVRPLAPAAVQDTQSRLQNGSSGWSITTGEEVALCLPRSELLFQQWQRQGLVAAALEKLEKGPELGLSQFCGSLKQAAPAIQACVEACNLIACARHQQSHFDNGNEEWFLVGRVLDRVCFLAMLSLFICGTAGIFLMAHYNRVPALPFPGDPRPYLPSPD
T1 sequence (Q07001 22-517): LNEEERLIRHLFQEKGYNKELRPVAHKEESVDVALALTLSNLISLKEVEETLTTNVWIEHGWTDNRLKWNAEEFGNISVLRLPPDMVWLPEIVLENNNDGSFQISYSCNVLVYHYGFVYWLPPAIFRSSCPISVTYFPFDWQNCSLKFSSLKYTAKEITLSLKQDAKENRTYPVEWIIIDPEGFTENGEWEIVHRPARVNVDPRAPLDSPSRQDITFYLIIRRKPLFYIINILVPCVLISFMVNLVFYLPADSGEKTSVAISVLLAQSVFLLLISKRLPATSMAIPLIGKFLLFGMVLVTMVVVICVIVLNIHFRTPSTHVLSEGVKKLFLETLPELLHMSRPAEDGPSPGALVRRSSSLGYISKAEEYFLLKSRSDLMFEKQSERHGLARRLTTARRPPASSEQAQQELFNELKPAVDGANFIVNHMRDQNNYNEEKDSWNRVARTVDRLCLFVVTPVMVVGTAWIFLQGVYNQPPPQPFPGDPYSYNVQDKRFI
T4 sequence (P43681 29-627 limits assumed): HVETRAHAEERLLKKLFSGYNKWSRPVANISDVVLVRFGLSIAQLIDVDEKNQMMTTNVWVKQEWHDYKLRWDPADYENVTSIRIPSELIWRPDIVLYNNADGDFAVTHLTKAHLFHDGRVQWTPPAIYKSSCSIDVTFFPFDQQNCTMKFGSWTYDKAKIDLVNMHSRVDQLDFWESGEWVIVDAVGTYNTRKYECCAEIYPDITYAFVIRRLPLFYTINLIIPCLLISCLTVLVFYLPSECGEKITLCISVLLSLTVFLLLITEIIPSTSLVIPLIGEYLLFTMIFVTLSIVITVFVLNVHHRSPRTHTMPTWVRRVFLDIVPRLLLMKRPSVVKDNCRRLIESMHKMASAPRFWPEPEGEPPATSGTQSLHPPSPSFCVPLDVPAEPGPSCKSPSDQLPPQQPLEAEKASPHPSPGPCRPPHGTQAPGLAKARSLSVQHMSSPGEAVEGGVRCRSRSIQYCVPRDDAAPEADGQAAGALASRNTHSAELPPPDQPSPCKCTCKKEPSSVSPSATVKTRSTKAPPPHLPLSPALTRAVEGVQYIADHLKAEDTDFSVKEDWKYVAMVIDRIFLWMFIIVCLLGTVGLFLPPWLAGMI
T4 sequence (P17787 26-502): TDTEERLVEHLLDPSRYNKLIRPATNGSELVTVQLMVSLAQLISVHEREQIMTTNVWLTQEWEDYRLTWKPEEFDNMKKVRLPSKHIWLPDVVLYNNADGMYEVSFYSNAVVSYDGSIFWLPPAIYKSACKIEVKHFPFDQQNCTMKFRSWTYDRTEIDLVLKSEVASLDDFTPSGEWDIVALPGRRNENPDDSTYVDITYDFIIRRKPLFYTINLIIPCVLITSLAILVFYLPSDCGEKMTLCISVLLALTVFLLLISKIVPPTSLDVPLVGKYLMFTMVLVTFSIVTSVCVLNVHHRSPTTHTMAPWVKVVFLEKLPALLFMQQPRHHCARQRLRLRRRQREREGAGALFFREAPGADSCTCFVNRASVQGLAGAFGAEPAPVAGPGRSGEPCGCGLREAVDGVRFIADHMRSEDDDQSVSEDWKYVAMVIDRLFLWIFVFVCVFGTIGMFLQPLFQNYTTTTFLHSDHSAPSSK

With `CC1NC(C)(C)COC1(O)c1ccccn1` (racemic) [Compound 6, 3,5,5-Trimethyl-2-(pyridin-2-yl)morpholin-2-ol], the half-maximal inhibitory concentration (IC50) (usually the concentration at which inhibition is half-maximal) is above 100 µM in test [1]; above 10 µM in [2] (HEK293-hSERT, mean ± standard error of three independent experiments, read-out: monoamine uptake inhibition IC50 [3H]5HT); 7.95 ± 1.8 µM on NE transporters [h(NET)]; above 100 µM on α4β2-nAChR; above 10 µM in test [3]; above 100 µM at α4β4-nAChR.
As for `CCC[C@@H]1NC(C)(C)CO[C@@]1(O)c1cccc(Cl)c1` [Compound 4t, (2S,3S)-2-(3-Chlorophenyl)-5,5-dimethyl-3-propyl-morpholin-2-ol], in test [4], the ED50 is 0.004 mg/kg. For the same compound, the “AD50 Hot-plate” value in [5] is listed as “IA (IA: AD50 > 15 mg/kg)”. The “AD50 Hypothermia” value in [6] is “IA (IA: AD50 > 15 mg/kg)”. The “AD50 Locomotion” value in test [7] is listed as 4.7 mg/kg.
Take `CC1NC(C)(C)COC1(O)c1cccnc1` (racemic) [Compound 5, 3,5,5-Trimethyl-2-(pyridin-3-yl)morpholin-2-ol]: the IC50 in test [1] was above 100 µM; in [2] it was above 10 µM; on NE transporters [h(NET)], above 10 µM; at α4β2-nAChR it was above 100 µM; in test [3] (HEK293-hDAT, mean ± standard error of three independent experiments, read-out: monoamine uptake inhibition IC50 [3H]DA), above 10 µM; at α4β4-nAChR, above 100 µM.
For the compound `C[C@H]1NC(C)(C)CO[C@]1(O)c1cccc(Cl)c1` [Compound (2R,3R)-4a, (2R,3R)-2-(3-Chlorophenyl)-3,5,5-trimethylmorpholin-2-ol, reference compound], the ED50 is 2.5 mg/kg in test [4] and 10.3 mg/kg in test [5]. In addition, in test [6], the “AD50 Hypothermia” value was “IA (IA: AD50 > 15 mg/kg)”. In test [7], the “AD50 Locomotion” value is “IA (IA: AD50 > 15 mg/kg)”.
Regarding `C[C@@H]1NC(C)(C)CO[C@@]1(O)c1cccc(Cl)c1` [Compound (2S,3S)-4a, (2S,3S)-2-(3-Chlorophenyl)-3,5,5-trimethylmorpholin-2-ol, reference compound], the ED50 in [4] is 0.2 mg/kg; in [5], 1 mg/kg; in test [7] (Mus musculus, pretreatment 15 min before nicotine 1.5 mg/kg s.c., read-out: AD50 Locomotion), 0.9 mg/kg. In addition, the “AD50 Hot-plate” value in test [5] was determined as 1 mg/kg. Also, the “AD50 Locomotion” value in test [7] was determined as 0.9 mg/kg.
On to `CC(NC(C)(C)C)C(=O)c1cccc(Cl)c1` (racemic) [Compound 2, (±)-2-tert-butylamino-3′-chloropropiophenone, reference compound], for which, in test [4], the ED50 turned out to be 1.2 mg/kg and the “AD50 Tail-flick” value turned out to be 1.2 mg/kg. Further, in [5], the ED50 turned out to be 15 mg/kg and the “AD50 Hot-plate” value amounted to 15 mg/kg. For the same compound, the ED50 in test [6] (Mus musculus, 0.5 h, read-out: AD50 Hypothermia) was 9.2 mg/kg. The “AD50 Hypothermia” value in [6] is given as 9.2 mg/kg.
